Values joined by “and” are separate entries in the source; they are usually repeats but may differ in a detail not shown here. Equal entries are not always repeated.
Test system: 885512-296-R-J2-PDC complex spheroid viability
Test: Anticancer human tumor 885512-296-R-J2-PDC patient-derived breast carcinoma cell line growth inhibition
Details: for viability, T/C: stronger effect = lower value; active = viability on the fitted dose curve at most 10% of control; inactive = the rest
Method in brief: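 Multicellular complex spheroids of tumor cells with human endothelial cells (HUVEC) and mesenchymal stem cells; the LSD1 inhibitor iadademstat was combined with standard-of-care or investigational agents. Top concentration at or near clinical Cmax, half-log dilutions; final DMSO ≤0.25%.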

[1] = curve of first compound, second compound 0.1 µM
[2] = curve of first compound, second compound 0.316 µM
[3] = curve of first compound, second compound 1 µM
[4] = curve of first compound, second compound 3.16 µM
[5] = curve of first compound, second compound 10 µM
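Also: spheroids exposed to agents for 7 days before viability read.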

NS(=O)(=O)OCC1CC(n2ccc3c(NC4CCc5ccccc54)ncnc32)CC1O (stereo unspecified) + NC1CCC(NC2CC2c2ccccc2)CC1
active: viability, T/C (second compound 0.1 µM, first compound 0.03 µM) 7.98% | viability, T/C (second compound 0.1 µM, first compound 0.0949 µM) 5.83% | viability, T/C (second compound 0.1 µM, first compound 0.3 µM) 2.1% | viability, T/C (second compound 0.1 µM, first compound 0.949 µM) 8.58% | viability, T/C (second compound 0.1 µM, first compound 3 µM) 9.25% | viability, T/C (second compound 0.316 µM, first compound 0.03 µM) 8.7% | viability, T/C (second compound 0.316 µM, first compound 0.0949 µM) 7.27% | viability, T/C (second compound 0.316 µM, first compound 0.3 µM) 5.01% | viability, T/C (second compound 0.316 µM, first compound 0.949 µM) 6.94% | viability, T/C (second compound 0.316 µM, first compound 3 µM) 6.92% | viability, T/C (second compound 1 µM, first compound 0.03 µM) 8.77% | viability, T/C (second compound 1 µM, first compound 0.0949 µM) 4.53% | viability, T/C (second compound 1 µM, first compound 0.3 µM) 4.31% | viability, T/C (second compound 1 µM, first compound 0.949 µM) 1.23% | viability, T/C (second compound 1 µM, first compound 3 µM) 6.71% | viability, T/C (second compound 3.16 µM, first compound 0.03 µM) 8.91% | viability, T/C (second compound 3.16 µM, first compound 0.0949 µM) 3.64% | viability, T/C (second compound 3.16 µM, first compound 0.3 µM) 1.52% | viability, T/C (second compound 3.16 µM, first compound 0.949 µM) 4.11% | viability, T/C (second compound 3.16 µM, first compound 3 µM) 3.57% | viability, T/C (second compound 10 µM, first compound 0.03 µM) 5.83% | viability, T/C (second compound 10 µM, first compound 0.0949 µM) 2.78% | viability, T/C (second compound 10 µM, first compound 0.3 µM) 1.64% | viability, T/C (second compound 10 µM, first compound 0.949 µM) 1.08% | viability, T/C (second compound 10 µM, first compound 3 µM) 0.82%
< 9.49 nM: IC50 [1] | IC50 [2] | IC50 [3] | IC50 [4] | IC50 [5]
inactive: viability, T/C (second compound 0.1 µM, first compound 0.00949 µM) 16.7% | viability, T/C (second compound 0.316 µM, first compound 0.00949 µM) 12.9% | viability, T/C (second compound 1 µM, first compound 0.00949 µM) 16.3% | viability, T/C (second compound 3.16 µM, first compound 0.00949 µM) 14.2% | viability, T/C (second compound 10 µM, first compound 0.00949 µM) 10.2%

Cn1ncnc1C1c2n[nH]c(=O)c3cc(F)cc(c23)NC1c1ccc(F)cc1 (stereo unspecified)
15.9 nM and 38.4 nM: IC50 (curve of compound)
inactive: viability, T/C (compound 0.000316 µM) 113% and 78.9% | viability, T/C (compound 0.001 µM) 96.4% and 90.1% | viability, T/C (compound 0.00316 µM) 81.5% and 89.5% | viability, T/C (compound 0.01 µM) 58.5% and 70.7% | viability, T/C (compound 0.0316 µM) 36.5% and 55.6% | viability, T/C (compound 0.1 µM) 15.5% and 29.8%

NS(=O)(=O)OCC1CC(n2ccc3c(NC4CCc5ccccc54)ncnc32)CC1O (stereo unspecified)
active: viability, T/C (compound 0.03 µM) 8.83% and 6.03% | viability, T/C (compound 0.0949 µM) 7.38% and 2.26% | viability, T/C (compound 0.3 µM) 4.17% and 1.57% | viability, T/C (compound 0.949 µM) 8.44% and 0.8% | viability, T/C (compound 3 µM) 6.16% and 0.67%
< 9.49 nM: IC50 (curve of compound)
inactive: viability, T/C (compound 0.00949 µM) 19.9% and 20.9%

Nc1ncn(C2CC(O)C(CO)O2)c(=O)n1 (stereo unspecified)
18.6 nM and 63.9 nM: IC50 (curve of compound)
inactive: viability, T/C (compound 0.00316 µM) 74.3% and 93.4% | viability, T/C (compound 0.01 µM) 60.7% and 84.3% | viability, T/C (compound 0.0316 µM) 40.7% and 68.5% | viability, T/C (compound 0.1 µM) 28.2% and 37.6% | viability, T/C (compound 0.316 µM) 23.4% and 23.6% | viability, T/C (compound 1 µM) 11.6% and 15.8%

CC(C)c1c(-c2ccccc2)nc2c(C#N)c[nH]n2c1=O + NC1CC1c1ccc(-c2cccc(O)c2)cc1
> 10000 nM: IC50 [1] | IC50 [2] | IC50 [3] | IC50 [4]
inactive: viability, T/C (second compound 0.1 µM, first compound 0.0316 µM) 120% | viability, T/C (second compound 0.1 µM, first compound 0.1 µM) 128% | viability, T/C (second compound 0.1 µM, first compound 0.316 µM) 127% | viability, T/C (second compound 0.1 µM, first compound 1 µM) 118% | viability, T/C (second compound 0.1 µM, first compound 3.16 µM) 119% | viability, T/C (second compound 0.1 µM, first compound 10 µM) 84.8% | viability, T/C (second compound 0.316 µM, first compound 0.0316 µM) 140% | viability, T/C (second compound 0.316 µM, first compound 0.1 µM) 124% | viability, T/C (second compound 0.316 µM, first compound 0.316 µM) 128% | viability, T/C (second compound 0.316 µM, first compound 1 µM) 128% | viability, T/C (second compound 0.316 µM, first compound 3.16 µM) 137% | viability, T/C (second compound 0.316 µM, first compound 10 µM) 87.4% | viability, T/C (second compound 1 µM, first compound 0.0316 µM) 132% | viability, T/C (second compound 1 µM, first compound 0.1 µM) 121% | viability, T/C (second compound 1 µM, first compound 0.316 µM) 118% | viability, T/C (second compound 1 µM, first compound 1 µM) 118% | viability, T/C (second compound 1 µM, first compound 3.16 µM) 125% | viability, T/C (second compound 1 µM, first compound 10 µM) 74.9% | viability, T/C (second compound 3.16 µM, first compound 0.0316 µM) 138% | viability, T/C (second compound 3.16 µM, first compound 0.1 µM) 131% | viability, T/C (second compound 3.16 µM, first compound 0.316 µM) 118% | viability, T/C (second compound 3.16 µM, first compound 1 µM) 108% | viability, T/C (second compound 3.16 µM, first compound 3.16 µM) 124% | viability, T/C (second compound 3.16 µM, first compound 10 µM) 71.9% | viability, T/C (second compound 10 µM, first compound 0.0316 µM) 88% | viability, T/C (second compound 10 µM, first compound 0.1 µM) 88.3% | viability, T/C (second compound 10 µM, first compound 0.316 µM) 88.5% | viability, T/C (second compound 10 µM, first compound 1 µM) 70.1% | viability, T/C (second compound 10 µM, first compound 3.16 µM) 72.9% | viability, T/C (second compound 10 µM, first compound 10 µM) 40.1%
6760 nM: IC50 [5]
